Measured values: the Kinase Knowledgebase extract (Sharma et al. 2016)

target: MAPK14 (UniProt Q16539); assay: Inhibition of MAPK14 Kinase Activity
Sequence (Q16539 whole entry, looked up): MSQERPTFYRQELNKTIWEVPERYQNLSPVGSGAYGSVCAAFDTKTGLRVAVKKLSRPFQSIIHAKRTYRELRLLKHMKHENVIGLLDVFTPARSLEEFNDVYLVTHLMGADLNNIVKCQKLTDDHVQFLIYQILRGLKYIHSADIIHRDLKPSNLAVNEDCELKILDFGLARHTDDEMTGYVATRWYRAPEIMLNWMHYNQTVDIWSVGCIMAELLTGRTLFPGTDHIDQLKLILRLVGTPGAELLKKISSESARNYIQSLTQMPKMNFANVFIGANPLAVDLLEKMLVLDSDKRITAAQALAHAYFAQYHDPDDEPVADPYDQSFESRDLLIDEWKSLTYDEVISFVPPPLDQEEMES

Compound	IC50
Cn1nc(C(C)(C)C)cc1NC(=O)Nc1ccc(OC2CCN(C(=O)c3c(F)cccc3F)CC2)cc1	< 5 µM
Cn1nc(C(C)(C)C)cc1NC(=O)Nc1cccc(OC2CCN(C(=O)c3c(Cl)cccc3Cl)CC2)c1	< 5 µM
Cn1nc(C(C)(C)C)cc1NC(=O)Nc1ccc(C(=O)N2CCN(Cc3ccncc3)CC2)cc1	< 5 µM
Cn1nc(C(C)(C)C)cc1NC(=O)Nc1ccc(OC2CCN(C(=O)c3c(Cl)cccc3Cl)CC2)cc1	< 5 µM
CC(C)(C)c1cc(NC(=O)Nc2ccc(OC3CCN(C(=O)c4c(Cl)cccc4Cl)CC3)cc2)[nH]n1	< 5 µM
Cn1nc(C(C)(C)C)cc1NC(=O)Nc1ccc(OC2CCN(C(=O)c3ccc(Cl)s3)CC2)cc1	< 5 µM
CCn1nc(C(C)(C)C)cc1NC(=O)Nc1ccc(CN2CCN(C(=O)c3c(F)cccc3F)CC2)cc1	< 5 µM
Cn1nc(C(C)(C)C)cc1NC(=O)Nc1ccc(CN2CCN(C(=O)c3ccccc3)CC2)cc1	< 5 µM
Cn1nc(C(C)(C)C)cc1NC(=O)Nc1ccc(OC2CCN(C(=O)c3c(Cl)cncc3Cl)CC2)cc1	< 5 µM
Cn1nc(C(C)(C)C)cc1NC(=O)Nc1ccc(CN2CCN(C(=O)c3ccc(F)cc3F)CC2)cc1	< 5 µM
Cn1nc(C(C)(C)C)cc1NC(=O)Nc1cccc(OC2CCN(C(=O)c3ccccc3F)CC2)c1	< 5 µM
Cn1nc(C(C)(C)C)cc1NC(=O)Nc1cccc(OC2CCN(C(=O)c3ccccc3Cl)CC2)c1	< 5 µM
Cn1nc(C(C)(C)C)cc1NC(=O)Nc1ccc(CN2CCN(C(=O)c3ccc(C(F)(F)F)cc3)CC2)cc1	< 5 µM
Cn1nc(C(C)(C)C)cc1NC(=O)Nc1ccc(CN2CCN(C(=O)c3c(F)cccc3Cl)CC2)cc1	< 5 µM

Further lines, results first:

IC50	Compound
< 5 µM	Cn1nc(C(C)(C)C)cc1NC(=O)Nc1ccc(N2CCN(C(=O)c3c(F)cccc3F)CC2)cc1
< 5 µM	Cn1nc(C(C)(C)C)cc1NC(=O)Nc1ccc(CN2CCN(C(=O)c3cc(Cl)sc3Cl)CC2)cc1
< 5 µM	Cn1nc(C(C)(C)C)cc1NC(=O)Nc1cc(F)cc(OC2CCN(C(=O)c3cc4ccccc4[nH]3)CC2)c1
< 5 µM	Cn1nc(C(C)(C)C)cc1NC(=O)Nc1cc(F)cc(OC2CCN(C(=O)c3cccc(CN4CCOCC4)c3)CC2)c1
< 5 µM	Cn1nc(C(C)(C)C)cc1NC(=O)Nc1cc(F)cc(OC2CCN(C(=O)c3c(Cl)cccc3Cl)CC2)c1
0.019 µM	Cn1nc(C(C)(C)C)cc1NC(=O)Nc1cc(F)cc(OC2CCN(C(=O)C(C)(C)C)CC2)c1
< 5 µM	Cn1nc(C(C)(C)C)cc1NC(=O)Nc1cc(F)cc(OC2CCN(C(N)=O)CC2)c1
< 5 µM	Cc1ccc(-n2nc(C(C)(C)C)cc2NC(=O)Nc2ccc(N3CCN(C(=O)C4CCC4)CC3)cc2)cc1
< 5 µM	Cn1nc(C(C)(C)C)cc1NC(=O)Nc1ccc(OC2CCN(C(=O)c3ccsc3)CC2)cc1
< 5 µM	Cc1nn(C)c(C)c1C(=O)N1CCC(Oc2ccc(NC(=O)Nc3cn(C)nc3C(C)(C)C)cc2)CC1
< 5 µM	Cn1nc(C(C)(C)C)cc1NC(=O)Nc1cccc(OC2CCN(C(=O)c3ccc(F)cc3F)CC2)c1
< 5 µM	Cc1ccc(-n2nc(C(C)(C)C)cc2NC(=O)Nc2ccc(N3CCN(C(=O)C4(C)CC4)CC3)cc2)cc1
< 5 µM	Cc1ccc(-n2nc(C(C)(C)C)cc2NC(=O)Nc2ccc(N3CCN(C(=O)C(C)C)CC3)cc2)cc1
< 5 µM	Cn1nc(C(C)(C)C)cc1NC(=O)Nc1ccc(OC2CCN(C(=O)c3c(F)cccc3Cl)CC2)cc1
< 5 µM	COc1ncccc1C(=O)N1CCC(Oc2ccc(NC(=O)Nc3cc(C(C)(C)C)nn3C)cc2)CC1
< 5 µM	Cn1nc(C(C)(C)C)cc1NC(=O)Nc1ccc(OC2CCN(C(=O)c3ccncc3)CC2)cc1
< 5 µM	Cc1ccc(-n2nc(C(C)(C)C)cc2NC(=O)Nc2ccc(OC3CCN(C(=O)C4CC4)CC3)cc2)cc1
< 5 µM	Cn1nc(C(C)(C)C)cc1NC(=O)Nc1ccc(OC2CCN(C(=O)c3ccc(Cl)nc3)CC2)cc1
